The target of assay [1] is Mu-type opioid receptor (Rattus norvegicus, UniProt P33535). Kind of assay: In vitro inhibition of [3H]DAMGO (Tyr-D-Ala-Gly-(Me)-Phe-Gly-ol) binding to Opioid receptor mu 1 using rat brain membranes. The assay is classed as cell membranes, Membrane.
In assay [2] the target is T1, Delta-type opioid receptor (Rattus norvegicus, UniProt P33533). Kind of assay: In vitro inhibition of [3H]deltorphin binding to Opioid receptor delta 1 using rat brain membranes. Type of assay: cell membranes, Membrane.
T1 sequence (P33533 whole entry): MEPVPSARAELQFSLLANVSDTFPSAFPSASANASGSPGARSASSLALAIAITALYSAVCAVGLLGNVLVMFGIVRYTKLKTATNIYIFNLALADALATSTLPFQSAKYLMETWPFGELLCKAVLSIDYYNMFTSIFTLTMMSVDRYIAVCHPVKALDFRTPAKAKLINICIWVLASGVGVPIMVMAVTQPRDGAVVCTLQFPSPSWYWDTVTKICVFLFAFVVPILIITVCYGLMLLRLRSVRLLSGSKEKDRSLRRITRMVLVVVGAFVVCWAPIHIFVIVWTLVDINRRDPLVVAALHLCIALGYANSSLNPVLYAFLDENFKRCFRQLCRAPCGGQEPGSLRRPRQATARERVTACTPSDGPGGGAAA
Assay [3] concerns the target Mu-type opioid receptor (Cavia porcellus) (UniProt P97266). Kind of assay: Agonist activity using strips of guinea pig ileum longitudinal muscle myenteric plexus at 10 uM. Type of assay: functional, tissue-based.
The target of assay [4] is Mu-type opioid receptor (Mus musculus) (UniProt P42866). Nature of the assay: Agonist activity using electrically induced smooth muscle contraction of mouse vas deferens at 30 uM. Type of assay: functional, tissue-based.
Chain of Mu-type opioid receptor (Mus musculus) (P42866 whole entry): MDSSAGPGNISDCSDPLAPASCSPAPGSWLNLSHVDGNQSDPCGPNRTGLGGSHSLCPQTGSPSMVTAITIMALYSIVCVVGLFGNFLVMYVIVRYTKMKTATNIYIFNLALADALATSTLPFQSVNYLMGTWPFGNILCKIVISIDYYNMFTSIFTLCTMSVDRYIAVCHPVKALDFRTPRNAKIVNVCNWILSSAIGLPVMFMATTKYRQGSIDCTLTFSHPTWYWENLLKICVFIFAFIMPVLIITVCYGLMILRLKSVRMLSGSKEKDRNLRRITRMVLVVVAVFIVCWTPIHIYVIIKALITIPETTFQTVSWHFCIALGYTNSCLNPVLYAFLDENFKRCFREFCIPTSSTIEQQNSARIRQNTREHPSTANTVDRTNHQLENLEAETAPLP
Assay [5] concerns the target T1, Delta-type opioid receptor. Nature of the assay: In vitro inhibition of [3H]- [p-Cl-Phe4]DPDPE binding to Opioid receptor delta 1 using rat brain membranes. Type of assay: cell membranes, Membrane.
For assay [6], the target named is Mu-type opioid receptor (Mus musculus, UniProt P42866). Nature of the assay: Agonist activity using electrically induced smooth muscle contraction of mouse vas deferens. The assay is classed as functional.
Chain of Mu-type opioid receptor (Mus musculus, UniProt P42866) (P42866 whole entry): as above
Assay [7] concerns the target Mu-type opioid receptor (Cavia porcellus, UniProt P97266). Kind of assay: Agonist activity using strips of guinea pig ileum longitudinal muscle myenteric plexus. The assay is classed as functional, tissue-based.
Assay [8] has as its target Mu-type opioid receptor (Homo sapiens) (UniProt P35372). Kind of assay: Agonist activity using strips of guinea pig ileum longitudinal muscle myenteric plexus at 30 uM. Type of assay: functional, tissue-based.
Assay [9] addresses Mu-type opioid receptor (Mus musculus) (UniProt P42866). The note with it: Vas deferens; 1 uM.
Description: Agonist activity using electrically induced smooth muscle contraction of mouse vas deferens at 1 uM
Assay [10] concerns the target Mu-type opioid receptor (Homo sapiens) (UniProt P35372). The note with it: guinea pig; Ileum; at 10 µM.

Each structure is given as a SMILES string. pIC50: −log10 of the molar value. Where only a bound is given, the exact number is not on record here.

Chain of Mu-type opioid receptor (Rattus norvegicus, UniProt P33535) (P33535 whole entry): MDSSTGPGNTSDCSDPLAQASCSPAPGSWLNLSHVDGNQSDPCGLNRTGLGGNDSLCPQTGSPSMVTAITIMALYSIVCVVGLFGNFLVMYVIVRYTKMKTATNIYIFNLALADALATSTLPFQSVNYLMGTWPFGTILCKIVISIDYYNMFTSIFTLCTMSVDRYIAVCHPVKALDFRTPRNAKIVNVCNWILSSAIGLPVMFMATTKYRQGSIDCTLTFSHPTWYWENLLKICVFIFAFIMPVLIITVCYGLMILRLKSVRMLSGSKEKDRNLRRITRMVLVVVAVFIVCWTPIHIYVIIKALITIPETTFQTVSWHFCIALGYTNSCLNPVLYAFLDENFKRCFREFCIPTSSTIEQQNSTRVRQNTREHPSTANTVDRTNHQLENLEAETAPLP
Chain of Mu-type opioid receptor (Homo sapiens) (P35372 whole entry): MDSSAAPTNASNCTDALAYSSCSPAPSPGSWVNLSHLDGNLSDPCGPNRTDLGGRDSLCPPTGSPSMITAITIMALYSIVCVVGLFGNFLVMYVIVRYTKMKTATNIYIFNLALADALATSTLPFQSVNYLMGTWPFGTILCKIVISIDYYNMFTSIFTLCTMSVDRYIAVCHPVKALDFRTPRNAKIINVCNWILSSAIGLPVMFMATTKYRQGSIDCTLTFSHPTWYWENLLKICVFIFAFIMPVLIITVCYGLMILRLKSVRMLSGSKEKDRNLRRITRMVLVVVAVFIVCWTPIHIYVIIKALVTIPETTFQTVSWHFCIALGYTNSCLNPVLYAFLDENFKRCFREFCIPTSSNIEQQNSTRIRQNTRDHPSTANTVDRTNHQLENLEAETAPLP
Chain of Mu-type opioid receptor (Cavia porcellus) (P97266 whole entry): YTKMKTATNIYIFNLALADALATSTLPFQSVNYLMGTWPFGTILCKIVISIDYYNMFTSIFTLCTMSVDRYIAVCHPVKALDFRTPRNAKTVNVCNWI
Chain of Mu-type opioid receptor (Cavia porcellus, UniProt P97266) (P97266 whole entry): as above

For `CC(C)(C)c1ccc(C(c2cccc(O)c2)N2CCN(Cc3ccccc3)C[C@@H]2Cc2ccccc2)cc1` (stereo in doubt; 15c2), the pIC50 on Mu-type opioid receptor [1] is 4.33; in [2] it was 4.67.

Turning to `CC(C)(C)c1ccc(C(c2cccc(O)c2)N2CCN(Cc3ccccc3)C[C@@H]2COCc2ccccc2)cc1` (stereo partly drawn), the pIC50 is 4.59 at Mu-type opioid receptor [1] and 7.42 in [2]. Further, the inhibition came to 0% in [3] and 44% in assay [4].

Turning to `CC(C)(C)c1ccc(C(c2cccc(O)c2)N2CCN(Cc3ccccc3)C[C@@H]2Cc2ccccc2)cc1` (stereo in doubt; 15c1) [listing 1 of 2 here], the pIC50 at Mu-type opioid receptor [1] was < 4.10; in assay [2], < 5.00.

Regarding `O=C(OCc1ccc(O)cc1)N1CSC(=S)N(Cc2ccccc2)C1`, the results for the pIC50 (at Mu-type opioid receptor [1]; in assay [5]) were 4.42 and 4.35, respectively.

With `CC(C)(C)c1ccc(C(c2cccc(O)c2)C2CCN(Cc3ccccc3)CC2)cc1` (stereo not drawn), the pIC50 was 5.37 on Mu-type opioid receptor [1], 7.48 in assay [2], 6.41 on Mu-type opioid receptor [6] and 4.81 at Mu-type opioid receptor [7].

Take `CC(C)(C)c1ccc(C(c2cccc(O)c2)N2CCN(Cc3ccccc3)C[C@@H]2Cc2ccccc2)cc1` (stereo in doubt; 15c1) [listing 2 of 2 here]: the inhibition in [8] was determined as 0%; in [9], 10%.

As to `S=C1SCN(Cc2ccccc2)CN1Cc1ccccc1` [SULBENTINE], the results for the pIC50 (on Mu-type opioid receptor [1]; in assay [5]) were 4.55 and 4.54, respectively.

`CC(C)(C)c1ccc(C(c2cccc(O)c2)N2CCC(Cc3ccccc3)CC2)cc1` (stereo not drawn): the pIC50 at Mu-type opioid receptor [1] was 4.64; in assay [2] it was 4.90.

`CC(C)(C)c1ccc(C(c2cccc(O)c2)N2CCN(Cc3ccccc3)C[C@@H]2CO)cc1` (stereo partly drawn): the pIC50 on Mu-type opioid receptor [1] is 5.10; in [2], 7.42; on Mu-type opioid receptor [6], 5.65. This molecule also gave an inhibition in assay [10] of 36%.

With `C[C@H]1CN(Cc2ccccc2)CCN1C(c1ccc(C(C)(C)C)cc1)c1cccc(O)c1` (stereo partly drawn), the pIC50 was 5.48 at Mu-type opioid receptor [1], 7.96 in assay [2] and 6.54 on Mu-type opioid receptor [6]. In assay [8], this molecule yielded an inhibition of 0%.

A word on the pIC50: it is the IC50 on a negative log10 scale, so that one unit is a factor of ten. The low end stands for a large IC50, the high end for a small IC50. Usually inhibition stands for the change of the read-out against control, counted positive when it falls.
